From US11426402B2, “IRE1 activating compounds for use in therapy” (The Scripps Research Institute, priority 2019, dated 2022)

How the values were obtained:
APP = APP immunoblots of lysates and conditioned media of CHO 7PA2 cells; assay type: cell-based; settings: with compound 474
Description: FIGS. 5A-5D. […] Cells were treated for 18 hours, media was then replaced and conditioned in the presence of treatments for 24 hours before harvesting for ELISA assay. Error bars represent SEM for n=3 replicates. Statistics calculated from one-tailed Student's t-test. *p<0.05, **p<0.01, ***p<0.001 (FIG. 5A). Quantification of media and lysate immunoblots from 474 treatment (10 μM) of APP. Error bars represent Standard Deviation for n=3 replicates. Statistics calculated from one-tailed Student's t-test. *p<0.05, **p<0.01 ***p<0.001 (FIG. 5B). Plot showing fraction of total remaining APP at each time point after S35 metabolic labeling of newly synthesized protein, accounting for the sum of APP in lysate and media. Error bars represent Standard Deviation for n=3 replicates. Statistics calculated from one-tailed Student's t-test. *p<0.05, **p<0.01, ***p<0.001 (FIG. 5C). Plot showing fraction of secreted APP collected at 2 hours after metabolic labeling. Error bars represent Standard Deviation for n=3 replicates. Statistics calculated from one-tailed Student's t-test. *p<0.05, **p<0.01, ***p<0.001 (FIG. 5D). […]

[1] = system: IRE1/XBP1s signaling pathway; assay: XBP1-RLuc splicing reporter in HEK293T-REx cells; assay type: cell-based; settings: activators 10 μM, 4 μ8c 32 μM, 18 hr
Description: FIG. 2A and FIG. 2B. Activation of RLuc luminescence in HEK293T-Rex cells stably expressing XBP1s-RLuc treated with 10 μM IRE1 activators in the presence or absence of IRE1 inhibitor 4 μ8c (32 μM) for 18 hr. Luminescence is shown as % signal relative to Tg treatment (500 nM; 18 hr). Error bars represent standard deviation for n=3 replicates (FIG. 2A), Activation of RLuc luminescence in HEK293T-Rex cells stably expressing XBP1s-RLuc treated with the indicated concentrations of IRE1 activator compounds for 18 hr. Luminescence is shown as % signal relative to Tg treatment (500 nM; 18 hr) Error bars represent standard deviation for n=3 replicates (FIG. 2B).
HEK293T-Rex cells incorporating either the XBP1s-Rluc or ERSE-FLuc reporters were collected by trypsinization and resuspended at a density of 500,000 cells per mL. The assay was started by dispensing 5 μL of cell suspension into each well of white, solid-bottom 1536-well plates using a flying reagent dispenser (FRD) and placed into an online incubator for 3 hr. Cells were then treated with 34 nL/well of either test compounds to give final concentrations of 5.17 μM, DMSO (low control, final concentration 0.68%, 0% activation) or 37 μM of Delta-7 thapsigargin (high control, final concentration 500 nM, 100% activation). Plates were incubated for 18 hr at 37° C., removed from the incubator and equilibrated to room temperature for 10 min. Luciferase activity was detected by addition of 5 μL of ONE-Glo reagent (Promega) to each well. After a 10 min incubation time, light emission was measured with the ViewLux reader (PerkinElmer).
The percent activation of each test compound was calculated as follows: % Activation=100*(Test Compound-Median Low Control)/(Median High Control Median Low Control). Primary screening of the 646,275 compound library at Scripps Florida yielded 10,114 hits for XBP1s Renilla Luciferase activity at ≥13.83% activation by thapsigargin. Compounds that hit in more than 7 screens (promiscuity score) were eliminated, as well as those that elicited HSP70 activation. The top 6,391 remaining compounds (activation≥16.36%) were moved forward to triplicate confirmation screening and HEK TREX CTG cytotoxicity counterscreening. Duplicates were removed from the resulting list, and the top 638 activating compounds (≥15.92%) were moved forward for triplicate titration screening and HEK TREX CTG titration counterscreening.
A HEK293^T-REx cell line that stably expresses a XBP1-Renilla luciferase (XBP1-RLuc) splicing reporter was used to identify compounds that activated the IRE1/XBP1s signaling pathway^37. Activated IRE1selectively splices mRNA encoded by this reporter, resulting in a frame-shift that allows expression of the active Renilla luciferase enzyme^37. […]

BiP = assay: qPCR of ATF6-regulated gene BiP in HEK293T cells; assay type: cell-based
Description: (§1) FIG. 3A-FIG. 3D. […] Error bars show SEM for n=3. […] Error bars show SEM for n=3. […] Error bars show SEM for n=3.
The compounds were measured for their abilities to induce expression of ER stress-responsive genes CHOP and BiP (or […]) regulated downstream of the PERK and ATF6 UPR signaling pathways, respectively^8, 40. The Tg-dependent expression of these two genes is largely insensitive to 4 μ8c, confirming their induction through an IRE1/XBP1s independent mechanism.

DNAJB9 = assay type: cell-based; settings: 4 μ8c 32 μM
secreted Aβ = assay: Aβ ELISA of media conditioned on CHO 7PA2 cells (V717F APP); assay type: cell-based; settings: 4 μ8c 32 μM
Description: FIGS. 5A-5D. […] Cells were treated for 18 hours, media was then replaced and conditioned in the presence of treatments for 24 hours before harvesting for ELISA assay. Error bars represent SEM for n=3 replicates. Statistics calculated from one-tailed Student's t-test. *p<0.05, **p<0.01, ***p<0.001 (FIG. 5A). Quantification of media and lysate immunoblots from 474 treatment (10 μM) of APP. Error bars represent Standard Deviation for n=3 replicates. Statistics calculated from one-tailed Student's t-test. *p<0.05, **p<0.01 ***p<0.001 (FIG. 5B). Plot showing fraction of total remaining APP at each time point after S35 metabolic labeling of newly synthesized protein, accounting for the sum of APP in lysate and media. Error bars represent Standard Deviation for n=3 replicates. Statistics calculated from one-tailed Student's t-test. *p<0.05, **p<0.01, ***p<0.001 (FIG. 5C). Plot showing fraction of secreted APP collected at 2 hours after metabolic labeling. Error bars represent Standard Deviation for n=3 replicates. Statistics calculated from one-tailed Student's t-test. *p<0.05, **p<0.01, ***p<0.001 (FIG. 5D).
7PA2 or 7WD10 cells were cultured on 96-well plates (Corning) and treated with IRE1 activating compounds +/−4 μ8c overnight. The medium was then replaced at 50% volume with treatment remaing, culture medium was collected after 24 hours. The medium was analyzed by an AP ELISA as follows. Monoclonal 6E10 anti-Aβ(residues 1-17) mouse IgG1, (Biolegend) was coated in […] carbonate buffer, pH 9.6, at 4° C. overnight on high binding assay black plates (Costar), washed with TBST (tris buffered saline with 0.05% Tween 20) and blocked with 5% non-fat milk in TBST. Samples and standards (condition 7PA2 media) were incubated for 1.5 hr, followed by addition of 4G8 antibody [anti-Aβ residues 17-24, mouse IgG2b (Biolegend)] conjugated to horseradish peroxidase (hrp) and incubated for 1.5 hr at 25° C. After washing, ABM substrate was added, followed by detection with an absorbance plate reader.
ELISA was used to monitor Aβ in media conditioned on a CHO cell line stably expressing the destabilized, disease-associated V717F APP mutant (CHO^7PA2)^45 treated with or without compounds 198, 474, and 970. […] The reduction in A secretion can be attributed to IRE1 activation because the reduced extracellular accumulation of Aβ is blocked by co-treatment with the active site IRE1 inhibitor 4 μ8c (FIG. 5A).

IRE1 = IRE1 (Homo sapiens, UniProt O75460); assay: IRE1 phosphorylation by Phos-tag SDS-PAGE and immunoblotting in HEK293T cells; assay type: cell-based; settings: co-treatment of Tg (500 nM) and 1 μM APY29
Sequence of IRE1 (O75460 19-977): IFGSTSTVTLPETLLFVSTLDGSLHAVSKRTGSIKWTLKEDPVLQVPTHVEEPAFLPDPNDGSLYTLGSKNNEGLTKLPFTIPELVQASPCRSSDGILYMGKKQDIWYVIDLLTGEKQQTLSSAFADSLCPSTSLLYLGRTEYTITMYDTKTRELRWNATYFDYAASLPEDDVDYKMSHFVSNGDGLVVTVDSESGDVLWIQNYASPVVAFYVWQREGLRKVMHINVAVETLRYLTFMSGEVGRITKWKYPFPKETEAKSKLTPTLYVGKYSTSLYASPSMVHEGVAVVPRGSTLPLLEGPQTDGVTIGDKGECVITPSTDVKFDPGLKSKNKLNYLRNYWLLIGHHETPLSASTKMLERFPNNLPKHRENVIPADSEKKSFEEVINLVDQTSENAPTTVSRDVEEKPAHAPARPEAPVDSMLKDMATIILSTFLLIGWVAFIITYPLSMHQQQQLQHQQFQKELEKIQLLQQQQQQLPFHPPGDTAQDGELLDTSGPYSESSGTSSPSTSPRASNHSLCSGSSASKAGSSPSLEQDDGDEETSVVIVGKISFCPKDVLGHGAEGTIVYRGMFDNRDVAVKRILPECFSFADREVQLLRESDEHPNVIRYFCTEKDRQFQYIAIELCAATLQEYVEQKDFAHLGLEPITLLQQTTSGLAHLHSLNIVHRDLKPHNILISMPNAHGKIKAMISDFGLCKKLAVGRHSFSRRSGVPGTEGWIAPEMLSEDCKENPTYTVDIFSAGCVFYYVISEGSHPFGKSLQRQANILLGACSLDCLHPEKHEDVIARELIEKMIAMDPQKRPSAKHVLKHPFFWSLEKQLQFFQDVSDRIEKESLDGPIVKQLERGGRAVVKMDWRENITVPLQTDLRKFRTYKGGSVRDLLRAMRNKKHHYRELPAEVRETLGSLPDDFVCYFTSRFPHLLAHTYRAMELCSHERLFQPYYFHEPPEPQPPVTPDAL
Description: as §1
Cell lysates were prepared as previously described in RIPA buffer (50 mM Tris, pH 7.5, 150 mM NaCl, 0.1% SDS, 1% Triton X-100, 0.5% deoxycholate and protease inhibitor cocktail (Roche). Total protein concentration in cellular lysates was normalized using the Bio-Rad protein assay. Lysates were then denatured with 1× Laemmli buffer+100 mM DTT and boiled before being separated by SDS-PAGE. Samples were transferred onto nitrocellulose membranes (Bio-Rad) for immunoblotting and blocked with 5% milk in Tris-buffered saline, 0.5% Tween-20 (TBST) following incubation overnight at 4° C. with primary antibodies. Membranes were washed in TBST, incubated with IR-Dye conjugated secondary antibodies and analyzed using Odyssey Infrared Imaging System (LI-COR Biosciences). Quantification was carried out with LI-COR Image Studio software.
Compounds that activate IRE1 through binding the IRE1 kinase active site and inhibiting IRE1 autophosphorylation can elicit off-target activity likely associated with binding to other protein kinases.^20, 35, 36 Thus, the purpose of this example was to define the dependence of the present compounds on IRE1 kinase activity. HEK293T cells were treated with compound 198, 474, or 970 in the absence or presence of Tg, and IRE1 phosphorylation was monitored by using Phos-tag SDS-PAGE and immunoblotting. As a control, cells were treated with APY29—an IRE1 kinase site inhibitor that allosterically activates the IRE1 RNAse^20 in the absence or presence of Tg.

XBP1 splicing = XBP1 splicing in HEK293T cells with or without KIRA6; assay type: cell-based
Description: To amplify the spliced and unspliced XBP1 mRNA, XBP1 primers were used as described previously.^21 PCR products were electrophoresed on 2.5% agarose gel. GAPDH (forward 5′[…]3′, reverse 5′[…]3′) was used as a loading control. The size difference between the spliced and the unspliced XBP1 is 26 nucleotides.
Next was determined the dependence of compound-dependent IRE1 RNAse activation on autophosphorylation. HEK293T cells were initially treated with the compounds in the absence or presence of KIRA6—a compound that binds the nucleotide binding pocket and inhibits both IRE1 kinase and RNAse activity^36. Co-treatment with KIRA6 blocked compound-dependent XBP1splicing.

[2] = system: RIDD targets SCARA3, Bloc1s1 and Col6A1; assay: IRE1 RIDD activity from the RNAseq dataset in HEK293T cells; assay type: cell-based, human; settings: 6 hours
Description: Cells were lysed and total RNA collected using the RNeasy mini kit, according to manufacturer's instructions (Qiagen). Conventional RNA-seq was conducted via BGI Americas on the BGI Proprietary platform, providing single-end 50 bp reads at 20 million reads per sample. Alignment of sequencing data was done using DNAstar Lasergene SeqManPro to the GRCh37. p 13 human genome reference assembly, and assembly data were imported into ArrayStar 12.2 with QSeq (DNAStar Inc.) to quantify the gene expression levels and normalization to reads per kilobase per million (RPKM). Differential expression analysis and statistical significance calculations between different conditions was assessed using “DESeq” in R, compared to vehicle-treated cells, using a standard negative binomial fit of the RPKM data to generate Fold Change quantifications.
Also evaluated was IRE1 RIDD activity induced by the compounds using the RNAseq dataset. Despite robust IRE1/XBP1s transcriptional activity following 6 hours of treatment, there was no evidence for RIDD after the same 6 hours.

## Cc1cc(=O)oc2c(C=O)c(O)ccc12 [4 μ8c, reference compound]
APP
  effect of 4 μ8c co-treatment on reduced APP levels: reversed
[1]
  effect of 4 μ8c co-administration on compound-dependent XBP1 splicing reporter activation: blocked
BiP
  effect of co-treatment on compound-dependent BiP increase: blocked
DNAJB9
  effect of 4 μ8c co-treatment on compound-increased DNAJB9 expression: inhibited
Secreted Aβ
  effect of 4 μ8c co-treatment on reduced extracellular Aβ: blocked

## c1cc(Nc2cc(C3CC3)[nH]n2)nc(Nc2ccc3nc[nH]c3c2)n1 [APY29, reference compound]
IRE1
  IRE1 phosphorylation: significant reductions

## CC(C)(C)c1nc(-c2ccc(NC(=O)Nc3cccc(C(F)(F)F)c3)c3ccccc23)c2c(N)nccn12 [KIRA6]
XBP1 splicing
  effect of KIRA6 co-treatment on compound-dependent XBP1 splicing: blocked

## C/C=C(/C)C(=O)O[C@H]1C(C)=C2[C@H]([C@@H]1OC(=O)CCCCCCC)[C@@](C)(OC(C)=O)C[C@H](OC(=O)CCC)[C@@]1(O)[C@H]2OC(=O)[C@@]1(C)O [Tg, thapsigargin]
[2]
  levels of RIDD targets SCARA3, Bloc1s1 and Col6A1: reduced
